Measurements reported in ChEMBL document CHEMBL1201861, “Genomics of Drug Sensitity in Cancer screening data, Wellcome Trust Sanger Institute”.

How the values were obtained:
8305C = experiment: cells; format: functional, cell-based, Homo sapiens
Description: SANGER: Inhibition of human 8305C cell growth in a cell viability assay.

SW948 = experiment: cells; format: functional, cell-based, Homo sapiens;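 also: growth inhibition of SW948 cells, read out with a cell viability assay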
Description: SANGER: Inhibition of human SW948 cell growth in a cell viability assay.

HSC-4 = experiment: cells; format: functional, cell-based, Homo sapiens;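 also: growth inhibition of human HSC-4 cells, read out with a cell viability assay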
Description: SANGER: Inhibition of human HSC-4 cell growth in a cell viability assay.

EFO-27 = experiment: cells; format: functional, cell-based, Homo sapiens;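 also: growth inhibition of EFO-27 cells, read out with a cell viability assay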
Description: SANGER: Inhibition of human EFO-27 cell growth in a cell viability assay.

TCC-SUP = experiment: cells; format: functional, cell-based, Homo sapiens;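 also: growth inhibition of TCC-SUP cells, read out with a cell viability assay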
Description: SANGER: Inhibition of human TCCSUP cell growth in a cell viability assay.

IGROV-1 = experiment: cells; format: functional, cell-based, Homo sapiens;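 also: reduction of IGROV-1 cell growth, read out with a viability assay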
Description: SANGER: Inhibition of human IGROV-1 cell growth in a cell viability assay.

DMS-53 = experiment: cells; format: functional, cell-based, Homo sapiens;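 also: cell viability assay measuring growth inhibition of human DMS-53 cells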
Description: SANGER: Inhibition of human DMS-53 cell growth in a cell viability assay.

Calu-1 = experiment: SANGER: Inhibition of human Calu-1 cell growth in a cell viability assay.; format: functional, cell-based
Huh-7 = experiment: cells; format: functional, cell-based, Homo sapiens;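 also: HuH-7 cell growth inhibition, read out with a cell viability assay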
Description: SANGER: Inhibition of human HuH-7 cell growth in a cell viability assay.

EFE-184 = experiment: cells; format: functional, cell-based, Homo sapiens
Description: SANGER: Inhibition of human EFE-184 cell growth in a cell viability assay.

OVCAR-5 = experiment: cells; format: functional, cell-based, Homo sapiens;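 also: growth inhibition of human OVCAR-5 cells, read out with a cell viability assay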
Description: SANGER: Inhibition of human OVCAR-5 cell growth in a cell viability assay.

U-251 = experiment: cells; format: functional, cell-based, Homo sapiens;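 also: growth inhibition of human U-251 cells, read out through a cell viability assay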
Description: SANGER: Inhibition of human U251 cell growth in a cell viability assay.

KP-4 = experiment: cells; format: functional, cell-based, Homo sapiens;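 also: human KP-4 cells, with growth inhibition read out through a cell viability assay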
Description: SANGER: Inhibition of human KP-4 cell growth in a cell viability assay.

MDA-MB-468 = experiment: cells; format: functional, cell-based, Homo sapiens
Description: SANGER: Inhibition of human MDA-MB-468 cell growth in a cell viability assay.

NCI-H345 = experiment: cells; format: functional, cell-based, Homo sapiens;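 also: growth inhibition of NCI-H345 cells measured with a cell viability assay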
Description: SANGER: Inhibition of human NCI-H345 cell growth in a cell viability assay.

FTC-133 = experiment: cells; format: functional, cell-based, Homo sapiens
BFTC-909 = experiment: cells; format: functional, cell-based, Homo sapiens
Description: SANGER: Inhibition of human BFTC-909 cell growth in a cell viability assay.

ECC4 = experiment: cells; format: functional, cell-based, Homo sapiens;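 also: growth inhibition of ECC4 cells, read out with a cell viability assay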
Description: SANGER: Inhibition of human ECC4 cell growth in a cell viability assay.

BOKU = experiment: cells; format: functional, cell-based, Homo sapiens;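 also: growth inhibition of the human BOKU cell line, read out by a cell viability assay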
Description: SANGER: Inhibition of human BOKU cell growth in a cell viability assay.

Detroit 562 = experiment: cells; format: functional, cell-based, Homo sapiens;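 also: growth inhibition of human Detroit 562 cells, read out by a cell viability assay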
Description: SANGER: Inhibition of human Detroit562 cell growth in a cell viability assay.

NCI-H2347 = experiment: cells; format: functional, cell-based, Homo sapiens;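 also: growth inhibition of the cell line, read out with a cell viability assay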
Description: SANGER: Inhibition of human NCI-H2347 cell growth in a cell viability assay.

ACHN = experiment: cells; format: functional, cell-based, Homo sapiens;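 also: cell viability read-out used to gauge how strongly growth of human ACHN cells is suppressed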
Description: SANGER: Inhibition of human ACHN cell growth in a cell viability assay.

PLC-PRF-5 = experiment: cells; format: functional, cell-based, Homo sapiens;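 also: growth inhibition of human PLC-PRF-5 cells, read out with a viability assay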
Description: SANGER: Inhibition of human PLC-PRF-5 cell growth in a cell viability assay.

IPC-298 = experiment: SANGER: Inhibition of human IPC-298 cell growth in a cell viability assay.; format: functional, cell-based
Caov-3 cell line = experiment: cells; format: functional, cell-based, Homo sapiens;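 also: cell growth inhibition read out by a viability assay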
Description: SANGER: Inhibition of human Caov-3 cell growth in a cell viability assay.

ST486 = experiment: SANGER: Inhibition of human ST486 cell growth in a cell viability assay.; format: functional, cell-based
COLO 205 = experiment: cells; format: functional, cell-based, Homo sapiens
Description: SANGER: Inhibition of human COLO-205 cell growth in a cell viability assay.

RPMI-6666 = experiment: cells; format: functional, cell-based, Homo sapiens
Description: SANGER: Inhibition of human RPMI-6666 cell growth in a cell viability assay.

CAPAN-1 = experiment: cells; format: functional, cell-based, Homo sapiens;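 also: growth suppression of CAPAN-1 cells, read out by a cell viability assay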
Description: SANGER: Inhibition of human CAPAN-1 cell growth in a cell viability assay.

L-540 = experiment: cells; format: functional, cell-based, Homo sapiens;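 also: growth inhibition of the human L-540 cell line, read out with a viability assay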
Description: SANGER: Inhibition of human L-540 cell growth in a cell viability assay.

HCC1395 = experiment: cells; format: functional, cell-based, Homo sapiens;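 also: growth inhibition of HCC1395 cells, read out by a cell viability assay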
Description: SANGER: Inhibition of human HCC1395 cell growth in a cell viability assay.

LC-1F = experiment: cells; format: functional, cell-based, Homo sapiens;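 also: growth inhibition of human LC-1F cells, read out with a cell viability assay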
Description: SANGER: Inhibition of human LC-1F cell growth in a cell viability assay.

SCC-9 = experiment: cells; format: functional, cell-based, Homo sapiens;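 also: Read-out is a cell viability assay, with values giving inhibition of cell growth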
Description: SANGER: Inhibition of human SCC-9 cell growth in a cell viability assay.

GCT = experiment: cells; format: functional, cell-based, Homo sapiens;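 also: GCT cell line proliferation inhibition, read out with a cell viability assay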
Description: SANGER: Inhibition of human GCT cell growth in a cell viability assay.

NCI-H838 = experiment: cells; format: functional, cell-based, Homo sapiens;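 also: growth inhibition of human NCI-H838 cells, read out by a cell viability assay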
Description: SANGER: Inhibition of human NCI-H838 cell growth in a cell viability assay.

UACC-62 = experiment: cells; format: functional, cell-based, Homo sapiens;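 also: growth inhibition of human UACC-62 cells, read out by a cell viability assay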
Description: SANGER: Inhibition of human UACC-62 cell growth in a cell viability assay.

COLO-678 = experiment: cells; format: functional, cell-based, Homo sapiens
Description: SANGER: Inhibition of human COLO-678 cell growth in a cell viability assay.

CCF-STTG1 = experiment: cells; format: functional, cell-based, Homo sapiens;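 also: growth inhibition of human CCF-STTG1 cells, determined with a cell viability read-out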
Description: SANGER: Inhibition of human CCF-STTG1 cell growth in a cell viability assay.

HCC1143 = experiment: cells; format: functional, cell-based, Homo sapiens;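 also: growth inhibition of human HCC1143 cells, read out with a cell viability assay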
Description: SANGER: Inhibition of human HCC1143 cell growth in a cell viability assay.

MEL-JUSO = experiment: cells; format: functional, cell-based, Homo sapiens;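 also: growth inhibition of human MEL-JUSO cells, read out with a cell viability assay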
Description: SANGER: Inhibition of human MEL-JUSO cell growth in a cell viability assay.

SNU-423 = experiment: cells; format: functional, cell-based, Homo sapiens
Description: SANGER: Inhibition of human SNU-423 cell growth in a cell viability assay.

MFE-296 = experiment: SANGER: Inhibition of human MFE-296 cell growth in a cell viability assay.; format: functional, cell-based
KU-19-19 = experiment: cells; format: functional, cell-based, Homo sapiens
Description: SANGER: Inhibition of human KU-19-19 cell growth in a cell viability assay.

O=C(O)c1ccc(-c2c[nH]c3ncc(-c4ccccc4)cc23)cc1C1CCCC1 [GSK-650394]
IC50 (8305C; Homo sapiens, 8305C): > 16 µM | IC50 (SW948; Homo sapiens, SW948): > 16 µM | IC50 (HSC-4; Homo sapiens, HSC-4): > 16 µM | IC50 (EFO-27; Homo sapiens, EFO-27): 15.4 µM | IC50 (TCC-SUP; Homo sapiens, TCC-SUP): > 16 µM | IC50 (IGROV-1; Homo sapiens, IGROV-1): 5.29 µM | IC50 (DMS-53; Homo sapiens, DMS-53): > 16 µM | IC50 (Calu-1; Homo sapiens, Calu-1): > 16 µM | IC50 (Huh-7; Homo sapiens, Huh-7): > 16 µM | IC50 (EFE-184; Homo sapiens, EFE-184): > 16 µM | IC50 (OVCAR-5; Homo sapiens, OVCAR-5): > 16 µM | IC50 (U-251; Homo sapiens, U-251): > 16 µM | IC50 (KP-4; Homo sapiens, KP-4): 5.19 µM | IC50 (MDA-MB-468; Homo sapiens, MDA-MB-468): > 16 µM | IC50 (NCI-H345; Homo sapiens, NCI-H345): > 16 µM | IC50 (FTC-133; Homo sapiens, FTC-133): > 16 µM | IC50 (BFTC-909; Homo sapiens, BFTC-909): 14.6 µM | IC50 (ECC4; Homo sapiens, ECC4): > 16 µM | IC50 (BOKU; Homo sapiens, BOKU): > 16 µM | IC50 (Detroit 562; Homo sapiens, Detroit 562): 12.8 µM | IC50 (NCI-H2347; Homo sapiens, NCI-H2347): > 16 µM | IC50 (ACHN; Homo sapiens, ACHN): 10.8 µM | IC50 (PLC-PRF-5; Homo sapiens, PLC-PRF-5): > 16 µM | IC50 (IPC-298; Homo sapiens, IPC-298): > 16 µM | IC50 (Caov-3 cell line; Homo sapiens, Caov-3): > 16 µM | IC50 (ST486; Homo sapiens, ST486): > 16 µM | IC50 (COLO 205; Homo sapiens, COLO 205): > 16 µM | IC50 (RPMI-6666; Homo sapiens, RPMI-6666): > 16 µM | IC50 (CAPAN-1; Homo sapiens, CAPAN-1): > 16 µM | IC50 (L-540; Homo sapiens, L-540): > 16 µM | IC50 (HCC1395; Homo sapiens, HCC1395): > 16 µM | IC50 (LC-1F; Homo sapiens, LC-1F): > 16 µM | IC50 (SCC-9; Homo sapiens, SCC-9): > 16 µM | IC50 (GCT; Homo sapiens, GCT): > 16 µM | IC50 (NCI-H838; Homo sapiens, NCI-H838): > 16 µM | IC50 (UACC-62; Homo sapiens, UACC-62): > 16 µM | IC50 (COLO-678; Homo sapiens, COLO-678): > 16 µM | IC50 (CCF-STTG1; Homo sapiens, CCF-STTG1): 12.6 µM | IC50 (HCC1143; Homo sapiens, HCC1143): > 16 µM | IC50 (MEL-JUSO; Homo sapiens, MEL-JUSO): 4.69 µM | IC50 (SNU-423; Homo sapiens, SNU-423): > 16 µM | IC50 (MFE-296; Homo sapiens, MFE-296): 11.3 µM | IC50 (KU-19-19; Homo sapiens, KU-19-19): > 16 µM

BLEOMYCIN
IC50 (8305C; 8305c): 0.804 µM | IC50 (SW948; sw948): 354 µM | IC50 (HSC-4; hsc-4): 153 µM | IC50 (EFO-27; efo-27): 0.571 µM | IC50 (TCC-SUP; tcc-sup): 15.9 µM | IC50 (IGROV-1; igrov-1): 0.145 µM | IC50 (DMS-53; dms-53): 319 µM | IC50 (Calu-1; calu-1): 5.14 µM | IC50 (Huh-7; huh-7): 2.43 µM | IC50 (EFE-184; efe-184): 383 µM | IC50 (OVCAR-5; ovcar-5): 4.75 µM | IC50 (U-251; u-251): 4.36 µM | IC50 (KP-4; kp-4): 2.17 µM | IC50 (MDA-MB-468; mda-mb-468): 67.6 µM | IC50 (NCI-H345; nci-h345): 814 µM | IC50 (FTC-133; ftc-133): 1.29 µM | IC50 (BFTC-909; bftc-909): 0.0138 µM | IC50 (ECC4; ecc4): 56.7 µM | IC50 (BOKU; boku): 0.137 µM | IC50 (Detroit 562; detroit 562): 11.9 µM | IC50 (NCI-H2347; nci-h2347): 5.12 µM | IC50 (ACHN; achn): 0.375 µM | IC50 (PLC-PRF-5; plc-prf-5): 281 µM | IC50 (IPC-298; ipc-298): 2.21 µM | IC50 (Caov-3 cell line; caov-3): 20.5 µM | IC50 (ST486; st486): 6.39 µM | IC50 (COLO 205; colo-205): 3.24 µM | IC50 (RPMI-6666; rpmi-6666): 0.445 µM | IC50 (CAPAN-1; capan-1): 2.92 µM | IC50 (L-540; l-540): 23.5 µM | IC50 (HCC1395; hcc1395): 0.501 µM | IC50 (LC-1F; lc-1f): 49.4 µM | IC50 (SCC-9; scc-9): 403 µM | IC50 (GCT; gct): 4.99 µM | IC50 (NCI-H838; nci-h838): 5.95 µM | IC50 (UACC-62; uacc-62): 188 µM | IC50 (COLO-678; colo-678): 36.2 µM | IC50 (CCF-STTG1; ccf-sttg1): 4.56 µM | IC50 (HCC1143; hcc1143): 27.2 µM | IC50 (MEL-JUSO; mel-juso): 0.109 µM | IC50 (SNU-423; snu-423): 0.867 µM | IC50 (MFE-296; mfe-296): 0.153 µM | IC50 (KU-19-19; ku-19-19): 525 µM
